Drawing on PubChem BioAssay AID179 (DTP/NCI, 2004), this text covers EC50, IC50 and outcome for 74 molecules.

“And” between values parts separate entries of the source, which are not always exact repeats. Identical values can stand only once. The source made the active and inactive calls.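 The calls were made as follows: active = compounds giving half or more protection of infected cells from virus-caused growth loss, again on retest; inactive = the rest.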 Where a SMILES comes first, the peptide text is derived from it. The star is where a group is joined. Boc = CC(C)(C)OC(=O)*; OcHex = C1CCC(O*)CC1

The assay has as its system CEM cells HIV-1 protection, formazan growth assay. Description: NCI AIDS Antiviral Assay. To be noted: for IC50: measured here: growth of uninfected CEM cells. The method, boiled down: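 Steps: treat uninfected and HIV-1-infected human CEM cells at five drug levels; quantify growth by soluble formazan; retest any compound reaching 50% protection; classify actives from the retest.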

Take `CCn1c(N)c(N=O)c(=O)n(CC)c1=O`: the EC50 (usually the concentration at which the effect is half-maximal) was above 200 µM and the half-inhibitory concentration (IC50) (as a rule, the concentration that inhibits the measured activity by half) is above 200 µM.
In the case of `CC(=O)/C(C=Nc1c(C)n(C)n(-c2ccccc2)c1=O)=C(/C)O`, the EC50 was above 200 µM and the IC50 was above 200 µM.
`Cc1nnc2sc(NN)nn12`: the EC50 is above 200 µM and the IC50 was 107 µM.
Consider `CC(C)COC(=O)CS(=O)(=O)O`, for which the EC50 is above 200 µM and the IC50 is above 200 µM.
Regarding `CN1C(=O)C2(C)SSC1(C)C(=O)N2C`, the EC50 was above 200 µM and the IC50 amounted to 12 µM.
On to `CN(CC(=O)O)S(=O)(=O)c1ccc(F)cc1`, for which the result was inactive.
Still for that read-out and setting: under `CC12CP(=O)(c3ccccc3)CC1C2(Cl)Cl` (stereo not drawn) stands “inactive”.
Take `CCOC(=O)c1sc(SC)nc1NC(=O)c1ccc(Cl)cc1`: the EC50 is above 200 µM and the IC50 was above 200 µM.
With `COC1(C)C(=O)NC(=O)N(C2C=CC(CO)O2)C1O` (stereo not drawn), the concentration giving a half-maximal response (EC50) is 7.41 µM and the concentration for half-maximal inhibition (IC50) turned out to be 170 µM.
`COC(=O)C1CCN(C(=O)OC(C)(C)C)CC1`: the EC50 was above 200 µM and the IC50 was above 200 µM.
For `COC(=O)CCc1ccc2c(c1)CC1(C2)Cc2ccc3c(c2C1)CCC3` (stereo not drawn), the EC50 is above 200 µM and the IC50 is above 200 µM.
For the molecule `Cc1cc(N(CCC#N)CCC#N)ccc1/C=C(\N=[N+]=[N-])C(=O)NC(=O)COc1ccccc1`, the EC50 was above 8.32 µM and the IC50 is above 8.32 µM.
Take `CC(=O)NNc1nc(C)c(C(=O)NNC(=O)C(=O)Nc2ccc(Cl)cc2)s1`: the result was inactive.
With `CC(=O)N1CCC2(c3ccccc3N(C(C)=O)C2c2ccc(O)cc2)C1C(=O)O` (stereo not drawn), the outcome was inactive.
As to `C#CCn1c(=O)c2cc(OC)c(OC)cc2n(CC#C)c1=O`, the outcome was inactive.
Consider `CC1(C)C(=C(C#N)C#N)C(C)(C)C1=C(C#N)C#N`, for which the EC50 is above 100 µM and the IC50 is above 100 µM.
As to `O=C1N/C(=C\c2ccccc2)C(=O)N1CN1CCCC1`, the EC50 is above 200 µM and the concentration for half-maximal inhibition (IC50) is 115 µM.
For `COc1c(OC)c(O)c2c(=O)c(OC)c(-c3ccc4c(c3)OCO4)oc2c1O`, in that order: above 200 µM and 74.1 µM.
For `CCc1cc(Cc2ccc(C)c(NC(=O)C(=O)C3C(=O)NC(=O)NC3=O)c2CC)cc(C)c1NC(=O)C(=O)C1C(=O)NC(=O)NC1=O`, the EC50 is above 77.6 µM and the 50% inhibitory concentration (IC50) is above 77.6 µM.
With `Cn1cnc(N2CCCC2)c(C#N)c1=O`, the EC50 is above 200 µM and the IC50 is above 200 µM.
`Cn1c(C(=O)c2cc3ccccc3n2C)cc2ccccc21`: the EC50 was above 18.2 µM and the half-maximal inhibitory concentration (IC50) was above 18.2 µM.
As for `Cc1ccc(NC(=O)CC2SC(=Nc3ccc(Cl)cc3)NC2=O)cc1C` (stereo not drawn), the EC50 is above 51.3 µM and the 50% inhibitory concentration (IC50) is above 51.3 µM.
For `CCOC(=O)c1c(NS(=O)(=O)c2ccc(Br)cc2)sc2c1CCCC2`, the outcome was inactive.
Take `O=[N+]([O-])c1ccc(-[n+]2ccc3ccccc3c2)c([N+](=O)[O-])c1`: the EC50 was above 759 µM and the IC50 was 4.79 µM.
The corresponding values for `CS(=O)(=O)C1S(=O)(=O)OCCOS1(=O)=O` are above 891 µM and above 891 µM.
Regarding `c1ccc2c(c1)N[C@@H]1c3[nH]c4ccccc4c3CC[C@H]21`, the EC50 was above 200 µM and the half-inhibitory concentration (IC50) stood at 24.5 µM.
The corresponding values for `O=C1CC2(CCC(O)(c3cccc4ccccc34)C(C(=O)c3cccc4ccccc34)C2)C(=O)c2ccccc2N1` (stereo not drawn) are above 200 µM and 110 µM.
As to `CN1C2C=CC(=O)C1C(C#N)C2` (stereo not drawn), the half-maximal effective concentration (EC50) is above 200 µM; the concentration for half-maximal inhibition (IC50) is 34.7 µM and 115 µM.
Regarding `N#Cc1snc2sc(=O)sc12`, the EC50 was above 112 µM and the IC50 came out at 8.71 µM.
The corresponding values for `CC1(C)/C(=N\O)C2(OS(=O)(=O)C(F)(F)F)CCC1C2` (stereo not drawn) are above 200 µM and above 200 µM.
As for `O=c1n(-c2ccccc2)c(=O)n2n1C1C=CC2C23C=CC12CCCC3` (stereo not drawn), the EC50 is above 100 µM and the IC50 was determined as 77.6 µM.
On to `CCOC(=O)CCC(NC(=O)OCc1ccccc1)C(=O)NC(CCC(=O)OCC)C(=O)NC(CCC(=O)OCC)C(=O)NC(CCC(=O)OCC)C(=O)NC(CCC(=O)OCC)C(=O)NC(CCC(=O)OCC)C(=O)NC(CCC(=O)OCC)C(=O)OCC` (stereo not drawn), for which the EC50 is above 100 µM and the IC50 came to 30.2 µM.
For `C=C1CCCCCCCCCCC12SCCC2CCCCSC` (stereo not drawn), in that order: above 200 µM and 120 µM.
In the case of `CN1CCN(CCSC2Cc3cc(Cl)ccc3Sc3ccccc32)CC1` (stereo not drawn), the EC50 was above 64.6 µM and the 50% inhibitory concentration (IC50) worked out at 7.76 µM.
Regarding `O/N=C1/CC2(N3CCOCC3)C3CC/C(=N\O)C2CC1(Cc1ccccc1)C3` (stereo not drawn), the EC50 was above 200 µM and the half-inhibitory concentration (IC50) was determined as 123 µM.
The corresponding values for `Cc1ccc2c(ccc(/C=C\c3cc(C)c4cccnc4c3O)[n+]2C)c1` are above 39.8 µM and 0.776 µM.
Consider `O=C1C=C(N2CCCCC2)c2cc(N3CCCCC3)ncc2C1=O`, for which the result was inactive.
On to `CNc1ccc(/C=C2\C=Cc3ccccc32)cc1Br`, for which the EC50 was above 12 µM and the IC50 was above 12 µM.
For `COC(=O)[C@@H](CO)NC(=O)OC(C)(C)C`, the EC50 was above 200 µM and the half-maximal inhibitory concentration (IC50) was above 200 µM.
On to `O=c1ccc2cc(O)c(O)cc2o1`, for which the EC50 is above 1410 µM and the 50% inhibitory concentration (IC50) is 93.3 µM.
The corresponding values for `CC(=O)Oc1c2c(c(OC(C)=O)c3c1n(C(C)=O)c1ccccc1n3C(C)=O)n(C(C)=O)c1ccccc1n2C(C)=O` are above 33.1 µM and 5.89 µM.
Consider `CC1(C)CC(c2c[nH]c3ccccc23)=CC2=Nc3ccccc3C21O` (stereo not drawn), for which the result was inactive.
Regarding `COc1ccc(-c2nc3c(nc2-c2ccc(OC)cc2)N(C)S(=O)(=O)N=C3N)cc1`, the EC50 is above 200 µM and the IC50 was determined as 11.2 µM.
Consider `CSc1ccc(OCC2OC2O)cc1` (stereo not drawn), for which the EC50 is above 24.5 µM and the IC50 is above 24.5 µM.
In the case of `O=C(O)Cc1cccc2c1OC(c1ccccc1)C(C(=O)c1ccccc1)C2=O` (stereo not drawn), the EC50 was above 200 µM and the IC50 turned out to be 75.9 µM.
As to `Cc1c(C(=O)O)n2c(C)nnc2c2ccccc12`, the EC50 is above 200 µM and the half-maximal inhibitory concentration (IC50) was above 200 µM.
In the case of `O=C(N=C1C(=O)C2(CCCCC2)C2(N=C(c3ccccc3)OC2=O)C12CCCCC2)c1ccccc1` (stereo not drawn), the EC50 was above 27.5 µM and the half-inhibitory concentration (IC50) came to 10 µM.
Consider `O=CC[C@H]1CCc2ccccc2C12CCC(=O)CC2`, for which the EC50 is above 74.1 µM and the IC50 was above 74.1 µM.
Turning to `Cc1ccc(NC(=O)CCCC(=O)CC(=O)c2ccc(Br)cc2)cc1`, the EC50 is above 309 µM and the IC50 is above 309 µM.
In the case of `CC(C)CC(NC(=O)OC(C)(C)C)C(=O)NC(CCC(=O)OC1CCCCC1)C(N)=O` (stereo not drawn) (Boc-Leu-Glu(OcHex)-NH2; configuration not given here), the EC50 is above 200 µM and the IC50 worked out at 126 µM.
As to `CCC12C=CCN3CCC4(C(=C(C(=O)OC)[C@@H]1O)Nc1ccccc14)C32` (stereo partly drawn), the EC50 is above 141 µM and the IC50 was 2.34 µM.
The corresponding values for `CC1Cn2c(=S)[nH]c3cccc(c32)NC1=O` (stereo not drawn) are above 200 µM and above 200 µM.
`NCCCCCCn1c(-c2ccc(Br)cc2)csc1=Nc1ccccc1`: the EC50 was above 200 µM and the IC50 was determined as 3.55 µM.
The corresponding values for `CN1N=C(c2ccncc2)OC1c1ccc(Cl)c(Cl)c1` (stereo not drawn) are above 200 µM and 85.1 µM.
For `NC(CSCCSCCSCC(N)C(=O)O)C(=O)O` (stereo not drawn), in that order: above 56.2 µM and above 56.2 µM.
For `C1CSCCSCCS1`, in that order: above 39.8 µM and above 39.8 µM.
As to `O=C1CSC(=O)N1c1ccccc1`, the EC50 is above 186 µM and the IC50 is above 186 µM.
On to `CC(C)(Oc1ccc(Cl)cc1)C(=O)N(C(=O)N1CCC(c2ccccc2)CC1)c1ccccc1`, for which the EC50 was above 200 µM and the half-inhibitory concentration (IC50) was 7.41 µM.
Turning to `CN(C)CCN(C)CC(O)CO` (stereo not drawn), the result was inactive.
On to `NC(=O)c1ccc(NC=O)cc1`, for which the EC50 was above 1510 µM and the half-inhibitory concentration (IC50) is 977 µM.
For `CCC1(CC)C(=O)NN(C(=O)c2ccc(Cl)cc2)C1=O`, in that order: above 200 µM and above 200 µM.
For `O=C(O)c1ccc(N=Nc2cc(S(=O)(=O)O)c3cccnc3c2O)cc1`, in that order: above 19.5 µM and above 19.5 µM.
For `COC(=O)C1=Nc2c(C)nn(-c3ccccc3)c2N=C(c2ccccc2)C1`, in that order: above 200 µM and above 200 µM.
With `CS(=O)(=O)c1ccc(-c2cc(-c3ccc(S(C)(=O)=O)cc3)[n+](-c3cc(-c4ccccc4)c([O-])c(-c4ccccc4)c3)c(-c3ccc(S(C)(=O)=O)cc3)c2)cc1`, the EC50 was above 692 µM and the IC50 is above 692 µM.
For `COCCN(C(=O)c1ccccc1)C1CCC2(SCCS2)c2[nH]c3ccccc3c21` (stereo not drawn), the EC50 was above 200 µM and the IC50 amounted to 24 µM.
The corresponding values for `CCOC(=O)/C(=C\c1ccc(Br)cc1)[Se]c1ccccc1` are above 63.1 µM and above 63.1 µM.
For `C[N+]1=C(c2ccc[nH]2)CC(C(=O)[O-])CC1` (stereo not drawn), in that order: above 200 µM and above 200 µM.
For `O=C1C2Nc3ccccc3SC2C(=O)N1c1ccc(Br)cc1` (stereo not drawn), in that order: above 19.1 µM and above 19.1 µM.
Consider `CC(=O)NCCSSCCSC(=S)N1CCCCC1`, for which the EC50 is above 200 µM and the IC50 was found to be 33.9 µM.
The corresponding values for `N=S(=O)(c1ccccc1)c1ccccc1[N+](=O)[O-]` (stereo not drawn) are 53.7 µM and 91.2 µM.
For `CC(SS(=O)(=O)O)C(N)=NCc1ccccc1` (stereo not drawn), in that order: above 200 µM and 67.6 µM.
The corresponding values for `CC(=O)Oc1ccc2c(C)cc(=O)oc2c1OC(C)=O` are above 200 µM and 69.2 µM.
Take `COc1c(O)c(C=O)c2c(O)c(-c3c(C)cc4c(C(C)C)c(OC)c(O)c(C=O)c4c3O)c(C)cc2c1C(C)C`: the EC50 is above 151 µM and the half-inhibitory concentration (IC50) worked out at 2.57 µM.
For `COc1cc2c3cc1Oc1c(O)c(OC)cc4c1[C@H](Cc1ccc(cc1)Oc1cc(ccc1O)C[C@H]3N(C)CC2)N(C)CC4`, the result was inactive.
